Columns and labels:
[1] = pKa of amine lipid by TNS fluorescence; format: physicochemical; conditions: probe TNS (6-(p-toluidino)-2-naphthalenesulfonic acid sodium salt), unformulated amine lipid in ethanol, sodium phosphate buffers -9.0
In short: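 Unformulated amine lipid, about 100 μM final, in 0.1 M sodium phosphate buffers spanning pH 4.5–9.0 with TNS. Fluorescence read at ex 321/em 448 nm; normalized data fitted sigmoidally to give pKa.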

mouse B2M gene = assay: In vivo editing in mouse liver, LNP with Cas9 mRNA and sgRNA G650, NGS; conditions: Table 3; guide G650; CD-1 female mice, 0.1 mpk i.v., liver at 6 or 7 days; Exp. 2-7
Experimental: LNPs were prepared using various amine lipids in a 4-component lipid system consisting of an ionizable lipid (e.g. an amine lipid), DSPC, cholesterol and PEG-2k-DMG. In assays for percent liver editing in mice, Cas9 mRNA and chemically modified sgRNA targeting a mouse sequence were formulated in LNPs, at either a 1:1 w/w ratio or a 1:2 w/w ratio.
The lipid components were dissolved in 100% ethanol with the lipid component molar ratios described below. The chemically modified sgRNA and Cas9 mRNA were combined and dissolved in 25 mM citrate, 100 mM NaCl, pH 5.0, resulting in a concentration of total RNA cargo of approximately 0.45 mg/mL. The LNPs were formulated with an N/P ratio of about 6, with the ratio of chemically modified sgRNA: Cas9 mRNA at either a 1:1 or 1:2 w/w ratio as described below.
CD-1 female mice, ranging from 6-10 weeks of age were used in each study. Animals were weighed and grouped according to body weight for preparing dosing solutions based on group average weight. LNPs were dosed via the lateral tail vein in a volume of 0.2 mL per animal (approximately 10 mL per kilogram body weight). The animals were periodically observed for adverse effects for at least 24 hours post dose.
For studies measuring in vivo editing in liver, CD-1 female mice were dosed at 0.1 mpk unless otherwise noted. Animals were euthanized at 6 or 7 days by exsanguinationvia cardiac puncture under isoflourane anesthesia. Liver tissue was collected from each animal for DNA extraction and analysis. Blood was collected into serum separator tubes or into tubes containing buffered sodium citrate for plasma as described herein. Cohorts of mice were measured for editing by Next-Generation Sequencing (NGS).
In brief, to quantitatively determine the efficiency of editing at the target location in the genome, genomic DNA was isolated and deep sequencing was utilized to identify the presence of insertions and deletions introduced by gene editing.
PCR primers were designed around the target site (e.g., B2M), and the genomic area of interest was amplified. Additional PCR was performed according to the manufacturer's protocols (Illumina) to add the necessary chemistry for sequencing. The amplicons were sequenced on an Illumina MiSeq instrument. The reads were aligned to the relevant reference genome (e.g., GRCm38) after eliminating those having low quality scores. The resulting files containing the reads were mapped to the reference genome (BAM files), where reads that overlapped the target region of interest were selected and the number of wild type reads versus the number of reads which contain an insertion, substitution, or deletion was calculated.
The editing percentage (e.g., the “editing efficiency” or “percent editing”) is defined as the total number of sequence reads with insertions or deletions over the total number of sequence reads, including wild type.
We assessed in vivo editing efficiency for materials delivered with formulations including various amine lipid compounds. Editing was measured using either G282 (SEQ ID No: 1) which targets the mouse TTR gene or G650 (SEQ ID No. 2) which targets the mouse B2M gene. Lipids described above were assessed for efficacy through in vivo editing experiments. LNPs were formulated at a 1:1 w/w ratio of sgRNA to Cas9 mRNA, and at an N/P ratio of about 6. Molar concentrations of lipids in the lipid component of the LNPs are expressed as mol % amine lipid/DSPC/cholesterol/PEG-2k-DMG, e.g. 50/10/38.5/1.5. The final LNPs were characterized to determine the encapsulation efficiency, polydispersity index, and average particle size according to the analytical methods provided above. Analysis of average particle size, polydispersity (PDI), total RNA content and encapsulation efficiency of RNA are shown in Table 2.

[2] = LNP average particle size and polydispersity by dynamic light scattering; format: physicochemical; conditions: LNP with the compound as amine lipid, composition ratio (mol %) 50/9/38/3 for Cmpnd 49, 50/10/38.5/1.5 for the others
In short: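 LNPs were diluted in PBS to a count rate of about 200-400 kcps and measured by DLS on a Zetasizer. Size is the intensity-weighted Z-average diameter, reported with number-average diameter, and the polydispersity index describes the spread of sizes around the mean.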

[3] = RNA encapsulation efficiency of LNP (Ribogreen fluorescence assay); format: physicochemical; conditions: LNP with the compound as amine lipid, composition ratio (mol %) 50/9/38/3 for Cmpnd 49, 50/10/38.5/1.5 for the others
In short: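 LNP samples diluted in 1× TE with or without 0.2% Triton-X 100 for total or free RNA, stained ~10 min at room temperature in the dark with RiboGreen; fluorescence ex 488/em 525 nm against RNA standard curves. Encapsulation efficiency = (Total RNA−Free RNA)/Total RNA.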

mouse TTR = assay: Serum TTR ELISA in mice after LNP delivery; format: in vivo; conditions: mouse serum, relative to TSS control of same experiment
In short: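 Female CD-1 mice received LNP at 0.1 mpk unless noted; serum was collected 6 or 7 days later. Total serum TTR was measured by mouse prealbumin ELISA at 10,000- and/or 2,500-fold dilution and is expressed as a percentage of vehicle control.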

Compound | pKa [1] | Editing Mean % Indel (mouse B2M gene) [%] | further results
CCCCCC/C=C\COC(=O)CCCCCCCC(=O)OCC(COC(=O)CCCCCCCC(=O)OC/C=C\CCCCCC)OC(=O)CCC(CCCCCCCCCCCC)OC(=O)OCCCN(C)C (stereo not shown) [Compound 22, O′1,O1-(2-((4-(((3-(dimethylamino)propoxy)carbonyl)oxy)hexadecanoyl)oxy)propane-1,3-diyl) 9,9′-di((Z)-non-2-en-1-yl) di(nonanedioate)] | 6.06 | 6.7 | –
CCCCC/C=C\C/C=C\CCCCCCCC(=O)OCC(COC(=O)CCCCCCC/C=C\C/C=C\CCCCC)OC(=O)CCCC(CCCCCCCCCCCC)OC(=O)OCCCN1CCCC1 (stereo not shown) [Compound 27, 2-((5-(((3-(pyrrolidin-1-yl)propoxy)carbonyl)oxy)heptadecanoyl)oxy)propane-1,3-diyl (9Z,9′Z,12Z,12′Z)-bis(octadeca-9,12-dienoate)] | 5.97 | 13.0 | –
CCCCC/C=C\C/C=C\CCCCCCCC(=O)OCC(COC(=O)CCCCCCC/C=C\C/C=C\CCCCC)OC(=O)CCC(CCCCCCCC)OC(=O)OCCCN(C)CC (stereo not shown) [Compound 33, 2-((4-(((3-(ethyl(methyl)amino)propoxy)carbonyl)oxy)dodecanoyl)oxy)propane-1,3-diyl (9Z,9′Z, 12Z, 12′Z)-bis(octadeca-9,12-dienoate)] | 5.95 | 20.0 | –
CCCCC/C=C\C/C=C\CCCCCCCC(=O)OCC(COC(=O)CCCCCCC/C=C\C/C=C\CCCCC)OC(=O)CCC(CCCCCCCCCCCC)OC(=O)NCCN(C)C (stereo not shown) [Compound 12, 2-((4-(((2-(dimethylamino)ethyl)carbamoyl)oxy)hexadecanoyl)oxy)propane-1,3-diyl (9Z,9′Z,12Z,12′Z)-bis(octadeca-9,12-dienoate)] | 6.82 | 5.5 | –
CCCCCCCCCCCOC(=O)CCCCCCCC(=O)OCC(COC(=O)CCCCCCCC(=O)OCCCCCCCCCCC)OC(=O)CCCC(CCCCCCCC)OC(=O)NCCN(C)CC (stereo not shown) [Compound 61, O′1,O1-(2-((5-(((2-(ethyl(methyl)amino)ethyl)carbamoyl)oxy)tridecanoyl)oxy)propane-1,3-diyl) 9,9′-diundecyl di(nonanedioate)] | 6.29 | – | Num Ave Size (nm) ([2]; Expt. 1): 79.7 nm; PDI ([2]; Expt. 1): 0.06; Z-Ave Size (nm) ([2]; Expt. 1): 102.00 nm; Encapsulation (%) ([3]; Expt. 1): 97%; Serum TTR % TSS (mouse TTR; dose 0.1 mpk): 81.48 % TSS
CCCCC/C=C\C/C=C\CCCCCCCC(=O)OCC(COC(=O)CCCCCCC/C=C\C/C=C\CCCCC)OC(=O)CCC(CCCCCCCCCC)OC(=O)NCC1CCCN1C (stereo not shown) [Compound 65, 2-((4-((((1-methylpyrrolidin-2-yl)methyl)carbamoyl)oxy)tetradecanoyl)oxy)propane-1,3-diyl (9Z,9′Z,12Z,12′Z)-bis(octadeca-9,12-dienoate)] | 6.37 | – | Num Ave Size (nm) ([2]; Expt. 8): 52.04 nm; PDI ([2]; Expt. 8): 0.056; Z-Ave Size (nm) ([2]; Expt. 8): 69.67 nm; Encapsulation (%) ([3]; Expt. 8): 99%; Serum TTR % TSS (mouse TTR; dose 0.03 mpk): 119.84 % TSS; Serum TTR % TSS (mouse TTR; dose 0.1 mpk): 99.22 % TSS

Second part, led by results:

pKa [1] | Compound | Editing Mean % Indel (mouse B2M gene) [%] | further results
5.37 | CCCCC/C=C\C/C=C\CCCCCCCC(=O)OCC(COC(=O)CCCCCCC/C=C\C/C=C\CCCCC)OC(=O)CCC(CCCCCCCCCCCC)OC(=O)OC1CCN(CC)CC1 (stereo not shown) [Compound 6, 2-((4-((((1-ethylpiperidin-4-yl)oxy)carbonyl)oxy)hexadecanoyl)oxy)propane-1,3-diyl (9Z,9′Z,12Z,12′Z)-bis(octadeca-9,12-dienoate)] | 0.4 | –
5.82 | CCCCC/C=C\C/C=C\CCCCCCCC(=O)OCC(COC(=O)CCCCCCC/C=C\C/C=C\CCCCC)OC(=O)CCCC(CCCCCCCCCCCC)OC(=O)OCCCN(C)CC (stereo not shown) [Compound 26, 2-((5-(((3-(ethyl(methyl)amino)propoxy)carbonyl)oxy)heptadecanoyl)oxy) propane-1,3-diyl (9Z,9′Z,12Z,12′Z)-bis(octadeca-9,12-dienoate)] | 5.2 | –
6.1 | CCCCCC/C=C\COC(=O)CCCCCCCC(=O)OCC(COC(=O)CCCCCCCC(=O)OC/C=C\CCCCCC)OC(=O)CCC(CCCCCCCCCCCC)OC(=O)NCC1CCCN1C (stereo not shown) [Compound 24, O′1,O1-(2-((4-((((1-methylpyrrolidin-2-yl)methyl)carbamoyl)oxy)hexadecanoyl)oxy)propane-1,3-diyl)9,9′-di((Z)-non-2-en-1-yl) di(nonanedioate)] | 6.8 | –
6.06 | CCCCC/C=C\C/C=C\CCCCCCCC(=O)OCC(COC(=O)CCCCCCC/C=C\C/C=C\CCCCC)OC(=O)CCCC(CCCCCCCCCCCC)OC(=O)NCCN(C)CC (stereo not shown) [Compound 28, 2-((5-(((2-(ethyl(methyl)amino)ethyl)carbamoyl)oxy)heptadecanoyl)oxy) propane-1,3-diyl (9Z,9′Z,12Z,12′Z)-bis(octadeca-9,12-dienoate)] | 17.8 | –
5.83 | CCCCC/C=C\C/C=C\CCCCCCCC(=O)OCC(COC(=O)CCCCCCC/C=C\C/C=C\CCCCC)OC(=O)CCC(CCCCCCCCCCCCCCCC)OC(=O)OCCCN(C)CC (stereo not shown) [Compound 18, 2-((4-(((3-(ethyl(methyl)amino)propoxy)carbonyl)oxy)icosanoyl)oxy)propane-1,3-diyl (9Z,9′Z,12Z,12′Z)-bis(octadeca-9,12-dienoate)] | 4.5 | –
5.64 | CCCCC/C=C\C/C=C\CCCCCCCC(=O)OCC(COC(=O)CCCCCCC/C=C\C/C=C\CCCCC)OC(=O)CCC(CCCCCCCC)OC(=O)OCCCN(CC)CC (stereo not shown) [Compound 32, 2-((4-(((3-(diethylamino)propoxy)carbonyl)oxy)dodecanoyl)oxy)propane-1,3-diyl (9Z,9′Z,12Z,12′Z)-bis(octadeca-9,12-dienoate)] | 11.6 | –
6.12 | CCCCC/C=C\C/C=C\CCCCCCCC(=O)OCC(COC(=O)CCCCCCC/C=C\C/C=C\CCCCC)OC(=O)CCCC(CCCCCCCCCCCC)OC(=O)OCCCN(C)C (stereo not shown) [Compound 25, 2-((5-(((3-(dimethylamino)propoxy)carbonyl)oxy)heptadecanoyl)oxy)propane-1,3-diyl (9Z,9′Z,12Z,12′Z)-bis(octadeca-9,12-dienoate)] | 10.2 | –
6.28 | CCCCC/C=C\C/C=C\CCCCCCCC(=O)OCC(COC(=O)CCCCCCC/C=C\C/C=C\CCCCC)OC(=O)CCC(CCCCCCCC)OC(=O)OCCCN(C)C (stereo not shown) [Compound 31, 2-((4-(((3-(dimethylamino)propoxy)carbonyl)oxy)dodecanoyl)oxy)propane-1,3-diyl (9Z,9′Z,12Z,12′Z)-bis(octadeca-9,12-dienoate)] | 15.6 | –

Reference: patent US12077483B2, “Modified amine lipids” (Intellia Therapeutics, Inc., priority 2018, dated 2024)
